Reference: patent US20150197492A1, “NOVEL INDENO[1,2-c]QUINOLIN-11-ONE DERIVATIVES, PREPARATION METHOD AND APPLICATION THEREOF” (National Defense Medical Center, priority 2014, published 2015)

Legend:
UACC-62 = assay: cells; type: cell-based; conditions: UACC-62 (Melanoma), 10 μM, 48 hours
T-47D = assay: cells; type: cell-based; conditions: T-47D (Breast Cancer), 10 μM, 48 hours
SK-MEL-2 = assay: cells; type: cell-based; conditions: SK-MEL-2 (Melanoma), 10 μM, 48 hours
NCI/ADR-RES = assay: cells; type: cell-based; conditions: NCI/ADR-RES (Ovarian Cancer), 10 μM, 48 hours
NCI-H226 = assay: cells; type: cell-based; conditions: NCI-H226 (Non-Small Cell Lung Cancer), 10 μM, 48 hours
MDA-MB-231/ATCC = assay: cells; type: cell-based; conditions: MDA-MB-231/ATCC (Breast Cancer), 10 μM, 48 hours
SNB-75 = assay: cells; type: cell-based; conditions: SNB-75 (CNS Cancer), 10 μM, 48 hours
A549/ATCC = assay: cells; type: cell-based; conditions: A549/ATCC (Non-Small Cell Lung Cancer), 10 μM, 48 hours
CCRF-CEM = assay: cells; type: cell-based; conditions: CCRF-CEM (Leukemia), 10 μM, 48 hours
MCF7 = assay: cells; type: cell-based; conditions: MCF7 (Breast Cancer), 10 μM, 48 hours
COLO 205 = assay: cells; type: cell-based; conditions: COLO 205 (Colon Cancer), 10 μM, 48 hours
Solubility in DMSO = type: physicochemical; conditions: order SJ-2<SJ-24<SJ-3<SJ-11
From the text: The solubility of the four compounds in DMSO is poor, SJ-2<SJ-24<SJ-3<SJ-11, and therefore it is estimated and this is the reason why the three compounds which have previously proven to be effective against PC-3 cell line by SRB assays are ineffective in this experiment.

UACC-257 = assay: cells; type: cell-based; conditions: UACC-257 (Melanoma), 10 μM, 48 hours
OVCAR-8 = assay: cells; type: cell-based; conditions: OVCAR-8 (Ovarian Cancer), 10 μM, 48 hours
SK-MEL-5 = assay: cells; type: cell-based; conditions: SK-MEL-5 (Melanoma), 10 μM, 48 hours
MDA-MB-435 = assay: cells; type: cell-based; conditions: MDA-MB-435 (Melanoma), 10 μM, 48 hours
NCI-H522 = assay: cells; type: cell-based; conditions: NCI-H522 (Non-Small Cell Lung Cancer), 10 μM, 48 hours
786-0 = assay: cells; type: cell-based; conditions: 786-0 (Renal Cancer), 10 μM, 48 hours
OVCAR-5 = assay: cells; type: cell-based; conditions: OVCAR-5 (Ovarian Cancer), 10 μM, 48 hours
UO-31 = assay: cells; type: cell-based; conditions: UO-31 (Renal Cancer), 10 μM, 48 hours
RXF 393 = assay: cells; type: cell-based; conditions: RXF 393 (Renal Cancer), 10 μM, 48 hours
HOP-92 = assay: cells; type: cell-based; conditions: HOP-92 (Non-Small Cell Lung Cancer), 10 μM, 48 hours
HOP-62 = assay: cells; type: cell-based; conditions: HOP-62 (Non-Small Cell Lung Cancer), 10 μM, 48 hours
RPMI-8226 = assay: cells; type: cell-based; conditions: RPMI-8226 (Leukemia), 10 μM, 48 hours
SF-539 = assay: cells; type: cell-based; conditions: SF-539 (CNS Cancer), 10 μM, 48 hours
DU-145 = assay: cells; type: cell-based; conditions: DU-145 (Prostate Cancer), 10 μM, 48 hours
MDA-MB-468 = assay: cells; type: cell-based; conditions: MDA-MB-468 (Breast Cancer), 10 μM, 48 hours
MALME-3M = assay: cells; type: cell-based; conditions: MALME-3M (Melanoma), 10 μM, 48 hours
CAKI-1 = assay: cells; type: cell-based; conditions: CAKI-1 (Renal Cancer), 10 μM, 48 hours
HS 578T = assay: cells; type: cell-based; conditions: HS 578T (Breast Cancer), 10 μM, 48 hours
HCC-2998 = assay: cells; type: cell-based; conditions: HCC-2998 (Colon Cancer), 10 μM, 48 hours
SNB-19 = assay: cells; type: cell-based; conditions: SNB-19 (CNS Cancer), 10 μM, 48 hours

Compound	growth percentage (UACC-62)	growth percentage (T-47D)	growth percentage (SK-MEL-2)	growth percentage (NCI/ADR-RES)	growth percentage (NCI-H226)	growth percentage (MDA-MB-231/ATCC)	growth percentage (SNB-75)	growth percentage (A549/ATCC)	growth percentage (CCRF-CEM)	growth percentage (MCF7)	growth percentage (COLO 205)	growth percentage (UACC-257)	growth percentage (OVCAR-8)	growth percentage (SK-MEL-5)	growth percentage (MDA-MB-435)	growth percentage (NCI-H522)	growth percentage (786-0)	growth percentage (OVCAR-5)	growth percentage (UO-31)	growth percentage (RXF 393)	further results
CN(C)c1nc2ccccc2c2c1-c1ccc(Cl)cc1C2=O [SJ-2, 9-Chloro-6-(dimethylamino)-11H-indeno[1,2-c]quinolin-11-one]	78.16%	44.88%	95.09%	92.57%	84.79%	76.68%	69.12%	98.85%	92.13%	23.99%	100.97%	101.11%	84.55%	94.89%	97.33%	88.97%	108.01%	89.14%	48.63%	101.32%	solubility in DMSO (Solubility in DMSO): poor; growth percentage (HOP-92): 44.26%; growth percentage (HOP-62): 78.02%; growth percentage (RPMI-8226): 88.05%; growth percentage (SF-539): 87.80%; growth percentage (DU-145): 106.50%; growth percentage (MDA-MB-468): 0.60%; growth percentage (MALME-3M): 111.50%; growth percentage (CAKI-1): 84.65%; growth percentage (HS 578T): 72.84%; growth percentage (HCC-2998): 81.50%; growth percentage (SNB-19): 104.19%
O=C1c2cc(Cl)ccc2-c2c(N3CCOCC3)nc3ccccc3c21 [SJ-8, 9-Chloro-6-morpholino-11H-indeno[1,2-c]quinolin-11-one]	88.33%	88.81%	104.29%	94.32%	87.21%	79.28%	81.55%	101.47%	88.85%	52.31%	100.71%	103.31%	95.25%	99.19%	106.62%	91.11%	103.71%	90.30%	45.74%	114.61%	growth percentage (HOP-92): 66.08%; growth percentage (HOP-62): 78.71%; growth percentage (RPMI-8226): 83.40%; growth percentage (SF-539): 96.24%; growth percentage (DU-145): 119.02%; growth percentage (MDA-MB-468): 59.47%; growth percentage (MALME-3M): 136.93%; growth percentage (CAKI-1): 94.99%; growth percentage (HS 578T): 88.93%; growth percentage (HCC-2998): 107.23%; growth percentage (SNB-19): 100.01%
CN1CCN(c2nc3ccccc3c3c2-c2ccc(Cl)cc2C3=O)CC1 [SJ-12, 9-Chloro-6-(4-methylpiperazin-1-yl)-11H-indeno[1,2-c]quinolin-11-one]	96.67%	76.27%	104.36%	88.19%	86.17%	62.53%	70.00%	96.43%	92.44%	68.30%	93.65%	95.34%	87.51%	97.67%	98.43%	96.62%	89.51%	99.31%	47.60%	94.00%	growth percentage (HOP-92): 38.50%; growth percentage (HOP-62): 61.42%; growth percentage (RPMI-8226): 85.92%; growth percentage (SF-539): 95.23%; growth percentage (DU-145): 102.37%; growth percentage (MDA-MB-468): 95.71%; growth percentage (MALME-3M): 106.59%; growth percentage (CAKI-1): 83.81%; growth percentage (HS 578T): 70.47%; growth percentage (HCC-2998): 103.21%; growth percentage (SNB-19): 85.41%
COc1nc2ccccc2c2c1-c1ccc(Cl)cc1C2=O [SJ-27, 6-Methoxy-9-chloro-11H-indeno[1,2-c]quinolin-11-one]	74.08%	78.97%	109.44%	94.29%	89.22%	74.61%	59.75%	99.70%	89.25%	71.98%	108.91%	98.20%	98.75%	98.51%	100.31%	95.89%	103.51%	96.81%	55.69%	114.49%	growth percentage (HOP-92): 77.75%; growth percentage (HOP-62): 96.01%; growth percentage (RPMI-8226): 90.30%; growth percentage (SF-539): 91.49%; growth percentage (DU-145): 121.06%; growth percentage (MDA-MB-468): 99.51%; growth percentage (MALME-3M): 107.54%; growth percentage (CAKI-1): 90.65%; growth percentage (HS 578T): 92.74%; growth percentage (HCC-2998): 104.46%; growth percentage (SNB-19): 96.35%
